Experimental data as given in patent publication US20070202492A1, “Viral Assay” (University Of Warwick, priority 2004, published 2007).
≈ marks a conversion by molar mass, not a printed value.

Columns and labels:
[1] = system: APV-luciferase; assay type: cell-based, avian pneumovirus (APV)
[2] = system: BS-C-1 cells; assay: Cell viability, MTT assay; assay type: cell-based
From the text: For the negative control, cells were killed with 1% w/v SDS.

[3] = system: APV; assay: microbe, parasite or virus in culture; assay type: cell-based, avian pneumovirus (APV)
[4] = system: RSV; conditions: HeLa cells, Kawana 1987, Watanabe 1994; cited from earlier work
[5] = system: RSV; assay: microbe, parasite or virus in culture; assay type: cell-based, human respiratory syncytial virus (RSV)
[6] = system: RSV; assay: Reduction in plaque number on BS-C-1 cells; assay type: cell-based, human respiratory syncytial virus (RSV); conditions: RSV on BS-C-1 cells; 30 μg/ml drug

Compound	Antiviral activity against APV (luciferase reporter) ([1]; 100 ng/ml, FIG. 3C)	Toxicity to the cells ([2]; 100 ng/ml, FIG. 3D)	Inhibition of APV (luciferase reporter) ([1]; higher concentrations of ribavirin, FIG. 3A)	Effect on CAT expression ([3]; APV, lowest concentration tested, 10 μg/ml, FIG. 1)	EC50 ([3]; avian metapneumovirus, BSC-1, read-out: EC50 (50% effective concentration))	EC90 ([3]; avian metapneumovirus, BSC-1, read-out: EC90 (90% effective concentration))	EC50, published values [4]	CAT expression ([5]; RSV, 50 μg/ml, FIG. 1)	Effect on CAT expression ([5]; RSV, lowest concentration tested, 10 μg/ml, FIG. 1)	EC50 ([5]; human respiratory syncytial virus, BSC-1, read-out: EC50 (50% effective concentration))	EC90 ([5]; human respiratory syncytial virus, BSC-1, read-out: EC90 (90% effective concentration))	Reduction in titre (plaque number) [6]	Toxicity to the cells ([2]; concentrations used in the experiment, FIG. 3B)
COc1c(C)c2c(c(O)c1C/C=C(\C)CCC(=O)O)C(=O)OC2 [MPA, mycophenolic acid]	has antiviral activity	not toxic											
NC(=O)c1ncn([C@@H]2O[C@H](CO)[C@@H](O)[C@H]2O)n1 [ribavirin]			strongly inhibited	obvious inhibitory effect	9 µg/mL (≈ 36.9 µM)	25.4 µg/mL (≈ 104 µM)	3.1 to 6.2 µg/mL	undetectable	obvious inhibitory effect	4.2 µg/mL (≈ 17.2 µM)	17.1 µg/mL (≈ 70 µM)	100 fold	not toxic
